# Experimental data from patent US20090176776A1, “SMALL MOLECULE INHIBITORS OF HIV-1 CAPSID ASSEMBLY” (UNIVERSITY OF ALABAMA AT BIRMINGHAM, priority 2005, published 2009).
# pIC50: −log10 of the molar value.
# How the values were obtained:
# [1] = MTS score (Table 1; method not described); assay type: cell-based
# HIV-1YU2 = test: Anti-HIV assay (multiple round), luciferase expression in Luc-M7 cells; assay type: cell-based; conditions: Luc-M7 cells infected with HIV-1YU2, 6 days, Bright-Glo
# Method: Anti-HIV Assays (Multiple Round). The inhibitory effects of the tested compounds on HIV-1YU2 replication were determined by the level of luciferase expression after 6 days of infection using Bright-Glo assay (Promega). An amount of 1.5×10^4 Luc-M7 (a gift from Ned Landau) cells per ml were infected with HIV-1YU2 at a multiplicity of infection (MOI) of 3. The HIV-1 infected ([…] compound) or mock-infected (0-300 μM compound) Luc-M7 cells were placed in 96-well culture plates (100 μl/well) with 100 μl of various concentrations of the compounds with 20 μg/ml DEAE Dextran in triplicate and incubated at 37° C. under 5% CO2 at 100% humidity. After 6 days, cell viability was quantified by Cell-Titer Glo assay (Promega). […] On day 5 cell viability was determined in the mock-infected cells. FIGS. 12-18 show the anti-HIV assays for the examples of chemical compounds used according to the invention. After in-vitro assay, the chemical compounds in FIGS. 12-18 were selected for screening for cell viability and toxicity. Jurkat cells assay was used as screening assay. […] After five days, GFP expression was read. Cell viability was monitored with Alamar Blue assay. Luc M7 assay was designed to measure inhibitory activity of the chemical compounds to viral replication. After infection of cells with YU2 virus, plate cells in 96-well plate in the presence of six concentration of compounds in DMSO. At day 6, the number of cells in wells were read with Cell Titer Glo kit or by counting the number of cells infected with Bright Glo kit. 293T cells assay was designed to determine the toxicity. 293T cells were transfected with NL43. After four hours, transfected cells were plated in 96-well plate in DMSO and 2 μM Indinavir. 72 hours later, viral supernatant was collected and plated on J[…].
# HIV-1NL43 = test: Anti-HIV assay (single round), infectivity of virus produced, titered on TZM-b1 cells; assay type: cell-based; conditions: virus from NL43-transfected 293T cells, 72 hours; luciferase after two days; read-out: Infectivity 50%
# Method: (§1) Anti-HIV Assays (Single Round). The inhibitory effect of the compounds on virus production and infectivity were determined by measuring the level of p24 produced in the presence of various concentrations of compounds from HEK-293 cells transiently transfected with pNL43 and by titering the virus on TZM-b1 cells. Briefly, 2.5×10^5 HEK-293 cells/ml were transfected with pNL43 using FuGene 6. Four hours post transfection the cells were plated in 96-well plates containing 100 μl of various concentrations of compounds (0-75 μM or 0-300 μM for mock transfected cells) in triplicate. At 72-hours post transfection virus supernatant was collected and stored at −80° C. until analysis. The level of p24 produced at each compound concentration was determined relative to the level produced in the presence of the DMSO only controls using HIV-1 p24 enzyme-linked immunosorbent assay (ELISA) (Beckman-Coulter). To determine the infectivity of the virus produced TZM-b1 cells were plated at 1×10^5 cells/ml in 100 μL in 96-well plates overnight. The next day, the media was replaced with 75 μL DMEM supplemented with 1% FBS, 1× PSG and 40 μg/ml DEAE Dextran and 25 μL of viral supernatant from the HEK-293 cells was added to each well. Three hours later 100 μL of DMEM with 7% FBS was added to each well. Two days after infection the cells were lysed and the level of luciferase expression was determined using the Bright-Glo assay.
# (§2) FIGS. 12-18 show the anti-HIV assays for the examples of chemical compounds used according to the invention. After in-vitro assay, the chemical compounds in FIGS. 12-18 were selected for screening for cell viability and toxicity. Jurkat cells assay was used as screening assay. In Jurkat cells assay, JLTRG-R5 cells were used as Indicator cells and MOLT4 cells as Producer cells of NL43 and BAL virus. 96 chemical compounds were plated at seven different concentration from 75 μM to 0 μM at three-fold serial dilutions in 384 well plate. After five days, GFP expression was read. Cell viability was monitored with Alamar Blue assay. Luc M7 assay was designed to measure inhibitory activity of the chemical compounds to viral replication. After infection of cells with YU2 virus, plate cells in 96-well plate in the presence of six concentration of compounds in DMSO. At day 6, the number of cells in wells were read with Cell Titer Glo kit or by counting the number of cells infected with Bright Glo kit. 293T cells assay was designed to determine the toxicity. 293T cells were transfected with NL43. After four hours, transfected cells were plated in 96-well plate in DMSO and 2 μM Indinavir. 72 hours later, viral supernatant was collected and plated on JC53BL. Luciferase expression was measure after two days and p24 analysis was conducted with 1:1000 and 1:2000 dilutions.
# 293T cells = test: Toxicity in 293T cells; assay type: cell-based, human; design: unit not given beside the values
# Method: as §1, §2
# [2] = molecular target: C-terminal domain of the CA protein (Human immunodeficiency virus type 1 group M subtype B, UniProt P12493); conditions: 1 mM compound, 0.02 mM protein domain; peaks at 5.5 ppm and 8 ppm
# Text: (§3) The STD-NMR spectroscopy is an extremely powerful and sensitive technique to detect and identify the binding of low molecular weight (MW) ligands specific to a target protein of interest. […] This technique exploits the transfer of radio frequency saturation of the proton magnetization on the large protein to the low MW ligand during the brief period it resides within the binding pocket of the protein, before it is released into solution. It also exploits the large differences in the correlation times of the interacting molecules.
# [3] = molecular target: N-terminal domain of the CA protein (Human immunodeficiency virus type 1 group M subtype B, UniProt P12493); conditions: 1 mM compound; peaks at 5.5 ppm and 8 ppm
# Text: as §3
structure (smiles),measurement,setting,value
Cc1ncc(C[n+]2csc(CCOC(=O)C3C4CC5CC(C4)CC3C5)c2C)c(N)n1.Cl.[Cl-] (stereo not drawn) [Compound 26],MTS AVG 4 (No Effect),"[1]; average of the MTS scores at 10, 30 and 100 μM",4.000
same,MTS 10 μM,"[1]; score at nominal 10 μM, 4 = No Effect",4
same,MTS 30 μM,"[1]; score at nominal 30 μM, 4 = No Effect",4
same,MTS 100 μM,"[1]; score at nominal 100 μM, 4 = No Effect",4
same,pIC50,HIV-1YU2,5.34
same,pIC50,HIV-1NL43,4.75
same,TC50%,293T cells,193
same,binding to the CTD domain (STD-NMR),[2],binding of the chemical compound 26 to the CTD domain is clearly indicated
same,binding to the NTD domain (STD-NMR),[3],binds to the NTD domain
